Converted amounts (≈) assume the structure as drawn. Where a SMILES comes first, the peptide text is derived from it. [ ]: non-standard residue; d: D form. The star is where a group is joined. Palmitoyl = CCCCCCCCCCCCCCCC(=O)*; Lauroyl = CCCCCCCCCCCC(=O)*; Pentanoyl = CCCCC(=O)*; AEEA = NCCOCCOCC(=O)O; Ahx = NCCCCCC(=O)O; βAla = NCCC(=O)O
What was measured:
[1] = system: C.albicans CCM 8186; assay: MIC, broth microdilution; format: cell-based, Candida albicans; conditions: for MIC100: C.albicans CCM 8186, 24 h
From the text: (§1) Escherichia coli (PCM 2057 = ATCC 25922), Staphylococcus aureus (PCM 2054 = ATCC 25923), Staphylococcus epidermidis (PCM 2118 = ATCC 14990), Bacillus subtilis (PCM 2224 = ATCC 9799), Bacillus cereus (PCM 482 = ATCC 10702) and Pseudomonas aeruginosa (PCM 499 = ATCC 10145) were obtained from the Polish Collection of Microorganisms. Fungi strains Candida albicans (CCM 8186 = CNTC 49/64), Candida glabrata (CCM 8270 = ATCC 90030), Candida parapsilosis (CCM 8260 = ATCC 22019) and Candida krusei (CCM 8271 = ATCC 6258) were acquired from the Czech Collection of Microorganisms. S. aureus USA300 (wild type strain), the reference strain of Klebsiella pneumoniae (ATCC 13883) and clinical isolates of Pseudomonas aeruginosa (PA1, PA2) collected from nonrelated patients admitted to the Stefan Zeromski Specialist Municipal Hospital in Krakow (Poland) were kindly provided by the research group of the Department of Microbiology, Faculty of Biochemistry, Biophysics and Biotechnology, Jagiellonian University, Krakow, Poland.
(§2) Luria-Bertani broth (LB) and Sabouraud Dextrose broth (SB) (Biocorp, Poland) were used for cultivation of bacteria and fungi strains, respectively. The antimicrobial activity of the peptides were analyzed through determination of MIC (minimal inhibitory concentration) parameters according to Clinical and Laboratory Standards (CLSI) guidelines developed for aerobic bacteria and yeasts, respectively. Mueller-Hinton broth (MHB) was used as the working medium for all bacterial strains, while in the case of fungi, RPMI-1640 (with L-glutamine, without sodium bicarbonate) growth medium buffered with MOPS (morpholinepropanesulfonic acid) and supplemented with 2% glucose was used. Inoculum was prepared from freshly grown cultures of microorganisms at their exponential phase of growth. […] Plates were then incubated for 24 h at 37 °C in the case of bacteria and at 35 °C in the case of fungi. After that time, absorbance was read at 590 nm with a Perkin Elmer plate reader. Cultures without peptide were treated as positive control, while uninoculated media were defined as negative control. All measurements were run at least in triplicate.

[2] = system: C.glabrata CCM 8270; assay: MIC, broth microdilution; format: cell-based, Candida glabrata; conditions: for MIC100: C.glabrata CCM 8270, 24 h
From the text: as §1, §2

[3] = system: B. subtilis PCM 2224; assay: MIC, broth microdilution; format: cell-based, Bacillus subtilis; conditions: B. subtilis PCM 2224, 24 h
From the text: as §1, §2

[4] = system: S. aureus PCM 2054; assay: MIC, broth microdilution; format: cell-based, Staphylococcus aureus; conditions: S. aureus PCM 2054, standard Mueller-Hinton broth, 24 h
From the text: as §1, §2

[5] = system: E. coli PCM 2057; assay: MIC, broth microdilution; format: cell-based, Escherichia coli; conditions: E. coli PCM 2057, 24 h
From the text: as §1, §2

[6] = system: C. albicans (CCM 8186) biofilm; assay: Biofilm inhibition assay (MTT); format: cell-based, Candida albicans; conditions: C. albicans biofilm development, 24 h post-inoculation
Procedure: In the case of bacteria, an overnight culture of S. aureus in Tryptic Soy Broth (TSB) supplemented with 2% glucose (TSB/+G) was used to prepare inoculum for the experiments. Briefly, 5 mL of 24 h culture was centrifuged at 5000× g, washed with sterile PBS and suspended in a fresh 2 × concentrated TSB/+G. In the case of yeasts, the overnight culture of C. albicans in Sabouraud dextrose broth (SB) was used for inoculum preparation. Similar to above, 5 mL of 24 h culture was centrifuged, washed with PBS and then suspended in sterile 2 × concentrated RPMI-1640 medium (with L-glutamine, without sodium bicarbonate) supplemented with 2% glucose (RPMI-1640/+G). In both cases, the cell concentration of the inoculum was about 1 × 10^7 cells per ml.
For the determination of the inhibitory concentration that reduced biofilm development by 50% (BIC50^, expressed in µg/mL), 100 µL inoculum in 2 × concentrated RPMI-1640/+G medium (in the case of C. albicans) or 2 x concentrated TSB/+G broth (in the case of S. aureus) was transferred to each well of 96-well plates containing 100 µL of serially diluted in water tested compounds. The final concentrations of the compounds were the same as those used in MIC determination studies. The 96-well plates were then incubated for 24 h at 37 °C and 35 °C in the case of bacteria and fungi, respectively. Viability of the microorganisms in the presence of the tested compounds was analyzed by means of MTT assay.
(§3) The reduction in biofilm viability was analyzed by means of MTT assay. Briefly, 20 μL of MTT solution (5 mg/mL in PBS) was added to prewashed wells with exchanged medium (180 μL of fresh medium) wells containing bacterial/yeast biofilms. Plates were then incubated in the dark for the next 3 h at 37 °C. After that time, the medium was replaced with 6 mM HCl in isopropanol and, when the reduced MTT was fully dissolved, the plates were read at 570 nm. Activity against fully developed 24 h old biofilm was described as biofilm eradication concentration (BEC50 expressed in µg/mL), which corresponded to the concentration of the compound able to reduce 50% of biofilm viability compared with the growth control.

[7] = system: C. albicans (CCM 8186) biofilm; assay: Biofilm eradication assay, pre-formed 24 h old biofilm (MTT); format: cell-based, Candida albicans; conditions: C. albicans pre-formed 24 h old biofilm, 24 h treatment
Procedure: In the case of yeasts, the overnight culture of C. albicans in Sabouraud dextrose broth (SB) was used for inoculum preparation. Similar to above, 5 mL of 24 h culture was centrifuged, washed with PBS and then suspended in sterile RPMI-1640 medium (with L-glutamine, without sodium bicarbonate) supplemented with 2% glucose (RPMI-1640/+G) yielding the amount of about 1 × 10^7 cells per ml. Subsequently, 200 µL of yeast suspension was transferred into each well of a microtiter plate, and it was incubated stationary for the next 24 h at 35 °C.
After that, each well of the plates containing bacterial or fungi biofilm was washed three times with PBS in order to remove all non-adherent cells. Then, peptide solutions of 200 µL ranging from 50 to 0,39 µg/mL prepared in TSB +/G in the case of experiments on S. aureus biofilm, and (RPMI-1640/+G) in the case of C. alibcans, were prepared and transferred into the microtiter plates. After the addition of the peptides, the experiments were continued for the next 24 h.
as §3

Row | SMILES | MIC100 [1] [µg/mL] | MIC100 [2] [µg/mL] | MIC100 [3] [µg/mL] | MIC100 [4] [µg/mL] | MIC100 [5] [µg/mL] | BIC50 [6] [µg/mL] | BEC50 [7] [µg/mL] | fold improved activity in comparison to the parent DK5 ([1]; C. albicans, MIC) | fold improved activity in comparison to the parent DK5 ([2]; C. glabrata, MIC) [fold]
1 | CC[C@H](C)[C@H](NC(=O)COCCOCCNC(=O)[C@H](Cc1c[nH]cn1)NC(=O)CCNC(=O)CCCCCN)C(=O)N[C@@H](CCCCN)C(=O)N[C@@H](CCCCN)C(=O)N[C@H](C(=O)N[C@@H](CC(C)C)C(=O)N[C@@H](CO)C(=O)N[C@@H](CCCCN)C(=O)N[C@H](C(=O)N[C@@H](CCCCN)C(=O)N[C@@H](CCCCN)C(=O)N[C@@H](CC(C)C)C(=O)N[C@@H](CC(C)C)C(N)=O)[C@@H](C)CC)[C@@H](C)CC [AHX-CAR-PEG-DK5] (H-[Ahx][βAla]H[AEEA]IKKILSKIKKLL-NH2) | >50 | >50 | 6.25 (≈ 3.31 µM) | >50 | >50 | >50 | 20 | – | –
2 | CC[C@H](C)[C@H](NC(=O)CCCCCN)C(=O)N[C@@H](CCCCN)C(=O)N[C@@H](CCCCN)C(=O)N[C@H](C(=O)N[C@@H](CC(C)C)C(=O)N[C@@H](CO)C(=O)N[C@@H](CCCCN)C(=O)N[C@H](C(=O)N[C@@H](CCCCN)C(=O)N[C@@H](CCCCN)C(=O)N[C@@H](CC(C)C)C(=O)N[C@@H](CC(C)C)C(N)=O)[C@@H](C)CC)[C@@H](C)CC [AHX-DK5] (H-[Ahx]IKKILSKIKKLL-NH2) | 12.5 (≈ 8.13 µM) | 12.5 (≈ 8.13 µM) | 0.78 (≈ 0.507 µM) | >50 | 12.5 (≈ 8.13 µM) | 25 | 25 | – | –
3 | CCCCC(=O)NCCC(=O)N[C@@H](Cc1c[nH]cn1)C(=O)NCCOCCOCC(=O)N[C@H](C(=O)N[C@@H](CCCCN)C(=O)N[C@@H](CCCCN)C(=O)N[C@H](C(=O)N[C@@H](CC(C)C)C(=O)N[C@@H](CO)C(=O)N[C@@H](CCCCN)C(=O)N[C@H](C(=O)N[C@@H](CCCCN)C(=O)N[C@@H](CCCCN)C(=O)N[C@@H](CC(C)C)C(=O)N[C@@H](CC(C)C)C(N)=O)[C@@H](C)CC)[C@@H](C)CC)[C@@H](C)CC [C5-CAR-PEG-DK5] ({Pentanoyl-βAla}-H[AEEA]IKKILSKIKKLL-NH2) | >50 | >50 | 6.25 (≈ 3.36 µM) | >50 | >50 | >50 | 20 | – | –
4 | CCCCCCCCCCCC(=O)NCCC(=O)N[C@@H](Cc1c[nH]cn1)C(=O)NCCOCCOCC(=O)N[C@H](C(=O)N[C@@H](CCCCN)C(=O)N[C@@H](CCCCN)C(=O)N[C@H](C(=O)N[C@@H](CC(C)C)C(=O)N[C@@H](CO)C(=O)N[C@@H](CCCCN)C(=O)N[C@H](C(=O)N[C@@H](CCCCN)C(=O)N[C@@H](CCCCN)C(=O)N[C@@H](CC(C)C)C(=O)N[C@@H](CC(C)C)C(N)=O)[C@@H](C)CC)[C@@H](C)CC)[C@@H](C)CC [C12-CAR-PEG-DK5] ({Lauroyl-βAla}-H[AEEA]IKKILSKIKKLL-NH2) | 12.5 (≈ 6.38 µM) | 12.5 (≈ 6.38 µM) | 3.13 (≈ 1.6 µM) | 6.25 (≈ 3.19 µM) | 3.13 (≈ 1.6 µM) | – | 12.5 | – | –
5 | CCCCCCCCCCCCCCCC(=O)NCCC(=O)N[C@@H](Cc1c[nH]cn1)C(=O)NCCOCCOCC(=O)N[C@H](C(=O)N[C@@H](CCCCN)C(=O)N[C@@H](CCCCN)C(=O)N[C@H](C(=O)N[C@@H](CC(C)C)C(=O)N[C@@H](CO)C(=O)N[C@@H](CCCCN)C(=O)N[C@H](C(=O)N[C@@H](CCCCN)C(=O)N[C@@H](CCCCN)C(=O)N[C@@H](CC(C)C)C(=O)N[C@@H](CC(C)C)C(N)=O)[C@@H](C)CC)[C@@H](C)CC)[C@@H](C)CC [C16-CAR-PEG-DK5] ({Palmitoyl-βAla}-H[AEEA]IKKILSKIKKLL-NH2) | 25 (≈ 12.4 µM) | >50 | 12.5 (≈ 6.2 µM) | >50 | >50 | 25 | 15 | – | –
6 | CC[C@H](C)[C@H](NC(=O)COCCOCCNC(=O)[C@H](Cc1c[nH]cn1)NC(=O)CCN)C(=O)N[C@@H](CCCCN)C(=O)N[C@@H](CCCCN)C(=O)N[C@H](C(=O)N[C@@H](CC(C)C)C(=O)N[C@@H](CO)C(=O)N[C@@H](CCCCN)C(=O)N[C@H](C(=O)N[C@@H](CCCCN)C(=O)N[C@@H](CCCCN)C(=O)N[C@@H](CC(C)C)C(=O)N[C@@H](CC(C)C)C(N)=O)[C@@H](C)CC)[C@@H](C)CC [CAR-PEG-DK5] (H-[βAla]H[AEEA]IKKILSKIKKLL-NH2; N-terminus and C-terminus assumed) | 15.6 (≈ 8.78 µM) | 62.5 (≈ 35.2 µM) | 3.9 (≈ 2.19 µM) | >50 | >50 | 50 | >50 | – | –
7 | CCCCC(=O)N[C@H](C(=O)N[C@@H](CCCCN)C(=O)N[C@@H](CCCCN)C(=O)N[C@H](C(=O)N[C@@H](CC(C)C)C(=O)N[C@@H](CO)C(=O)N[C@@H](CCCCN)C(=O)N[C@H](C(=O)N[C@@H](CCCCN)C(=O)N[C@@H](CCCCN)C(=O)N[C@@H](CC(C)C)C(=O)N[C@@H](CC(C)C)C(N)=O)[C@@H](C)CC)[C@@H](C)CC)[C@@H](C)CC [Compound C5-DK5] (Pentanoyl-IKKILSKIKKLL-NH2) | 6.25 (≈ 4.14 µM) | 6.25 (≈ 4.14 µM) | 0.78 (≈ 0.517 µM) | 12.5 (≈ 8.29 µM) | 3.13 (≈ 2.08 µM) | 10 | 12.5 | – | –
8 | CCCCCCCCCCCC(=O)N[C@H](C(=O)N[C@@H](CCCCN)C(=O)N[C@@H](CCCCN)C(=O)N[C@H](C(=O)N[C@@H](CC(C)C)C(=O)N[C@@H](CO)C(=O)N[C@@H](CCCCN)C(=O)N[C@H](C(=O)N[C@@H](CCCCN)C(=O)N[C@@H](CCCCN)C(=O)N[C@@H](CC(C)C)C(=O)N[C@@H](CC(C)C)C(N)=O)[C@@H](C)CC)[C@@H](C)CC)[C@@H](C)CC [Compound C12-DK5] (Lauroyl-IKKILSKIKKLL-NH2) | 3.13 (≈ 1.95 µM) | 3.13 (≈ 1.95 µM) | 0.78 (≈ 0.486 µM) | 6.25 (≈ 3.89 µM) | 12.5 (≈ 7.78 µM) | 6.25 | – | about 10 fold | ~20
